Reference: US20240254199A1, “MODIFIED MAMMALIAN CELLS” (Genentech, Inc., priority 2021, published 2024)

Experiments:
Type in all cases: cell-based, Chinese hamster
[1] = system: mAb2-expressing CHO-K1 cells; experiment: Fed-batch production of mAb2-expressing CHO cell line with PDGFRa inhibitor and/or insulin; settings: added on Day 3 of fed-batch production
Protocol: Fed-batch production cultures were performed as disclosed here and below in Example 2, with proprietary chemically defined medium using different vessels (e.g., tube-spin and AMBR15) along with bolus feeds on Days 3, 7 and 10 as previously mentioned (Hsu, Aulakh, Traul, & Yuk, 2012). Anti-cell aggregation agent was used in all cultures during production assay to prevent cell aggregation due to the release of DNA from dying cells. Cells were seeded at low (1-2×10^6 cells/mL) or high (10×10^6 cells/mL) seeding densities using lean or rich production media. Cultures were temperature shifted from 37° C. to 35° C. on Day 3. Titers were determined using Protein-A affinity chromatography with UV detection. Percent viability and viable cell count were determined using a Vi-Cell XR instrument (Beckman Coulter Item #383721).
(§1) It was previously shown that UPR-induced poor growth profiles correlated with a decrease in PDGFRa levels (FIGS. 19A and 19B) (Tung, et al., 2018). PDGFRa and insulin signaling pathways have overlapping downstream targets (FIG. 21A), however insulin signaling negatively regulates PDGFRa signaling (Cirri, et al., 2005). […]

[2] = system: empty host CHO-K1 cells; experiment: Seed train growth of empty host CHO-K1 cells with PDGFRa inhibitor and/or insulin
Protocol: 1.5 million cells were lysed in 1× NP40 buffer (10 mM Tris, pH 8.0, 0.5% NP40, 150 mM NaCl, 10 mM DTT and 5 mM MgCl2) containing protease inhibitor cocktails (Roche EDTA free mini-tablets cocktail) for 20 min on ice. Lysates were subjected to sodium dodecyl sulfate-polyacrylamide gel electrophoresis (SDS-PAGE) (4-12% Tris glycine) and transferred to nitrocellulose membrane. After blocking with 5% milk in tris-buffered saline (TBS)-0.1% Tween buffer, the membranes were blotted with respective antibodies. Blots were visualized using HRP-conjugated anti-rabbit anti-body and SuperSignal West Dura Extended Duration Substrate. The following inhibitors were used: ATF6i (10 μM Ceapin-A7 (Gallagher, et al., 2016)), PERKi (10 μM Compound 39 (Axten, et al., 2012)), IRE1i6 (10 μM 4u8c (Cross, et al., 2012)), IRE1i9 (10 μM in-house/Genentech), PDGFRi (5-20 μM Abcam, AG-1296). The following antibodies were used: anti-PDGFRa (Cell Signaling Technology (CST), D1E1E), rabbit anti-BiP (C50B12, Cell Signaling Technology, 3177), rabbit anti-PERK (CST, C33E10), mouse anti-o-actin-HRP (AC-15) (Abcam, ab49900), rabbit anti-phospho-Akt (Ser473) (CST, D9E), rabbit anti-Akt (CST, 5G3), rabbit cleaved caspase3 (CST, asp175), goat anti-human IgG-HRP (MP Biomedicals, 0855252), rabbit IRE1a (CST, 14C10), mouse anti-phospho-IRE1, mouse anti-XBP1, rabbit anti-Bax (Abcam, ab32503), rabbit anti-Bak (CST, D4E4), donkey anti-rabbit HRP (Jackson ImmunoResearch Laboratories, Inc., 711-035-152), rabbit anti-sod2 (CST, D3×8F)
as §1

[3] = system: PDGFRa; experiment: PDGFRa protein (western blot) and mRNA (qPCR) levels upon chemical UPR induction; settings: seed train, mAb1-expressing CHO DG44 and CHO-K1, optimal pH
Protocol: 1.5 million cells were lysed in 1× NP40 buffer (10 mM Tris, pH 8.0, 0.5% NP40, 150 mM NaCl, 10 mM DTT and 5 mM MgCl2) containing protease inhibitor cocktails (Roche EDTA free mini-tablets cocktail) for 20 min on ice. Lysates were subjected to sodium dodecyl sulfate-polyacrylamide gel electrophoresis (SDS-PAGE) (4-12% Tris glycine) and transferred to nitrocellulose membrane. After blocking with 5% milk in tris-buffered saline (TBS)-0.1% Tween buffer, the membranes were blotted with respective antibodies. Blots were visualized using HRP-conjugated anti-rabbit anti-body and SuperSignal West Dura Extended Duration Substrate. The following inhibitors were used: ATF6i (10 μM Ceapin-A7 (Gallagher, et al., 2016)), PERKi (10 μM Compound 39 (Axten, et al., 2012)), IRE1i6 (10 μM 4u8c (Cross, et al., 2012)), IRE1i9 (10 μM in-house/Genentech), PDGFRi (5-20 μM Abcam, AG-1296). […]
An interesting phenomenon was previously described where activation of UPR in seed train culture, triggered by lower pH conditions in a particular CHO cell line, negatively affected culture growth in production media at target pH (Tung, et al., 2018). When exposed to low pH conditions, high intracellular BiP levels were detected in this cell line that correlated to low growth profiles during production and poor bioprocess outcomes (Tung, et al., 2018). […]

Molecule | cell growth and viability in fed-batch production [1] | reduction of cell growth ([2]; 20 μM, empty host CHO-K1 cells, seed train media, 4 days) | PDGFRa levels (protein and mRNA) [3] | Akt phosphorylation ([2]; insulin added to cultures with PDGFRa inhibitor, western blot) | cellular growth of cultures treated with the PDGFRa inhibitor ([2]; insulin added to seed train cultures with PDGFRa inhibitor)
COc1cc2ncc(-c3ccccc3)nc2cc1OC [PDGFRa inhibitor, AG-1296] | significantly decreased cell growth, without affecting cell viability | approximately 50% | – | – | –
Tunicamycin | – | – | reduced at both the protein and mRNA levels | – | –
insulin | partially rescued the observed cell growth inhibition | – | – | increased Akt phosphorylation | partially rescued cellular growth
